The source of these data is paper PMC10454243, “Anticancer Study of a Novel Pan-HDAC Inhibitor MPT0G236 in Colorectal Cancer Cells” (International Journal of Molecular Sciences, 2023).

Molecules are shown by their SMILES. Read-outs that look alike come from different tables or passages of the source.

Data set [1] concerns HCT-116 human colorectal cancer cells. Kind of data set: MTT cell viability assay, HCT-116. Format: cell-based. As to conditions: 48 h.
For data set [2], the system named is HT-29 human colorectal cancer cells. Kind of data set: MTT cell viability assay, HT-29. In kind it is cell-based. To be noted: read-out: IC50 cell viability. A general note: Tetrazolium assays rely on reduction of a dye to a coloured formazan, in cell work by metabolically active cells.
The test system of data set [3] is human umbilical vein endothelial cells (HUVECs). Kind of data set: MTT cell viability assay, HUVEC. Format: cell-based.
Data set [4] deals with HCT-116 human colorectal cancer cells. Kind of data set: SRB cell proliferation (growth) assay, HCT-116. Format: cell-based. To be noted: read-out: GI50 cell growth. The method, then: (§1) The impacts of MPT0G236 on cell viability (A,C) and cell growth (B) were evaluated with HCT-116 and HT-29 human colorectal cancer cells, as well as human umbilical vein endothelial cells (HUVECs). The cells were treated with different concentrations of the compound for 48 h. Cell viability was measured using an MTT assay, while cell growth was assessed using an SRB assay. The data are shown as the mean ± SEM on the basis of three independent experiments. […] The basal cells were fixed with 10% (w/v) trichloroacetic acid for 10 min. […] After treatment, the cells were fixed with 10% TCA, stained with SRB at a concentration of 0.4% (w/v), and washed with 1% acetic acid. After drying, the stained cells were lysed with 10 mM Trizma base, and the absorbance was measured at a wavelength of 515 nm.

For data set [5], the system named is HT-29 human colorectal cancer cells. Description: SRB cell proliferation (growth) assay, HT-29. Format: cell-based. To be noted: read-out: GI50 cell growth. As to the method:
as §1

The target in data set [6] is T1, HDAC3 (Homo sapiens, UniProt O15379).
T1 construct: purchased Reaction Biology Corp. (contract assay service)
T1 sequence (O15379 whole entry): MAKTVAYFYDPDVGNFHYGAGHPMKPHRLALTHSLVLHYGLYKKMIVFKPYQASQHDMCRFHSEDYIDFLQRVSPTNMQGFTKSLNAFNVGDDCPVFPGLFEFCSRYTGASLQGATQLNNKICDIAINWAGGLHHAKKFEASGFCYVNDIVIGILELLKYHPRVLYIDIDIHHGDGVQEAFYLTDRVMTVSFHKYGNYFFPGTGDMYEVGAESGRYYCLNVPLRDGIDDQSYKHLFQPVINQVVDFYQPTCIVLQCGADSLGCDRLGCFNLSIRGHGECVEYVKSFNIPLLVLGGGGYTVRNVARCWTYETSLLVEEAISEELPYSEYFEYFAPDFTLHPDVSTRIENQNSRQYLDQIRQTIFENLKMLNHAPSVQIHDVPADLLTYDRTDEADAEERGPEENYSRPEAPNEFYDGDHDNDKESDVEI
T1 sequence (Q9Y618 395-489 partner limits assumed): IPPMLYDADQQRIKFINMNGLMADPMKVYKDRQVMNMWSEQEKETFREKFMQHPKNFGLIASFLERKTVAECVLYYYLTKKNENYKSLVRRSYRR
Kind of data set: HDAC enzyme inhibition assay, HDAC3. As to conditions: Class I; Reaction Biology Corp. assay. In kind it is biochemical. As to the method: (§2) HDAC activity inhibition assays were performed by Reaction Biology Corp. (Malvern, PA, USA).

Data set [7] deals with T2, HDAC4 (Homo sapiens, UniProt P56524).
T2 construct: purchased Reaction Biology Corp. (contract assay service)
T2 sequence (P56524 whole entry): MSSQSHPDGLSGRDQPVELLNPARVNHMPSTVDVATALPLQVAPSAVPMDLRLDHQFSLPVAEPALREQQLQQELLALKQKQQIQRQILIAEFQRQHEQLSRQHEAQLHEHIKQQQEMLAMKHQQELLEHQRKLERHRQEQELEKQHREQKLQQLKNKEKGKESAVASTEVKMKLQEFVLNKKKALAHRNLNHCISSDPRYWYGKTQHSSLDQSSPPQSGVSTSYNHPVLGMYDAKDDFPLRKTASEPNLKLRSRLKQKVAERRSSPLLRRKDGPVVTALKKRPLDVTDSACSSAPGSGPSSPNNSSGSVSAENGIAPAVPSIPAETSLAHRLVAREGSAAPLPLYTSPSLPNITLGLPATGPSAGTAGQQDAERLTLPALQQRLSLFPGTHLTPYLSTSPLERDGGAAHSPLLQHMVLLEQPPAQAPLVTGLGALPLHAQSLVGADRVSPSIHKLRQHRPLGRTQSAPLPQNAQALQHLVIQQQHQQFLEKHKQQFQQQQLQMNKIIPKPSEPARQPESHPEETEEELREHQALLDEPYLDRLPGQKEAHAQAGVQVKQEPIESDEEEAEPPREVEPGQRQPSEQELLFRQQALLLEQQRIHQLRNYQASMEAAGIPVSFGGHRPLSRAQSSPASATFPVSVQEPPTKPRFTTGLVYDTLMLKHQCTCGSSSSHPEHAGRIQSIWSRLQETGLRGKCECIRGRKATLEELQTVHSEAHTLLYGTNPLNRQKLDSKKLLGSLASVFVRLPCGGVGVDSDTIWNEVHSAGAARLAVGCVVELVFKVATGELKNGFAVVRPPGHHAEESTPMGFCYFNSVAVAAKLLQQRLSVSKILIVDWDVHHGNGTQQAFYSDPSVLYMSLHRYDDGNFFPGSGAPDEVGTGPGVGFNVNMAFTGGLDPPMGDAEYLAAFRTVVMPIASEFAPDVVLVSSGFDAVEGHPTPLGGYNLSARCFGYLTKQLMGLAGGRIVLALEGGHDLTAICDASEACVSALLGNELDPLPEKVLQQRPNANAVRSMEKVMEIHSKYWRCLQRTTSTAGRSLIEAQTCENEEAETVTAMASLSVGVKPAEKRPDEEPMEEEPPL
Description: HDAC enzyme inhibition assay, HDAC4. Format: biochemical. As to conditions: Class IIa; Reaction Biology Corp. assay. As to the method:
as §2

For data set [8], the target named is T3, HDAC5 (Homo sapiens, UniProt Q9UQL6).
T3 construct: purchased Reaction Biology Corp. (contract assay service)
T3 sequence (Q9UQL6 whole entry): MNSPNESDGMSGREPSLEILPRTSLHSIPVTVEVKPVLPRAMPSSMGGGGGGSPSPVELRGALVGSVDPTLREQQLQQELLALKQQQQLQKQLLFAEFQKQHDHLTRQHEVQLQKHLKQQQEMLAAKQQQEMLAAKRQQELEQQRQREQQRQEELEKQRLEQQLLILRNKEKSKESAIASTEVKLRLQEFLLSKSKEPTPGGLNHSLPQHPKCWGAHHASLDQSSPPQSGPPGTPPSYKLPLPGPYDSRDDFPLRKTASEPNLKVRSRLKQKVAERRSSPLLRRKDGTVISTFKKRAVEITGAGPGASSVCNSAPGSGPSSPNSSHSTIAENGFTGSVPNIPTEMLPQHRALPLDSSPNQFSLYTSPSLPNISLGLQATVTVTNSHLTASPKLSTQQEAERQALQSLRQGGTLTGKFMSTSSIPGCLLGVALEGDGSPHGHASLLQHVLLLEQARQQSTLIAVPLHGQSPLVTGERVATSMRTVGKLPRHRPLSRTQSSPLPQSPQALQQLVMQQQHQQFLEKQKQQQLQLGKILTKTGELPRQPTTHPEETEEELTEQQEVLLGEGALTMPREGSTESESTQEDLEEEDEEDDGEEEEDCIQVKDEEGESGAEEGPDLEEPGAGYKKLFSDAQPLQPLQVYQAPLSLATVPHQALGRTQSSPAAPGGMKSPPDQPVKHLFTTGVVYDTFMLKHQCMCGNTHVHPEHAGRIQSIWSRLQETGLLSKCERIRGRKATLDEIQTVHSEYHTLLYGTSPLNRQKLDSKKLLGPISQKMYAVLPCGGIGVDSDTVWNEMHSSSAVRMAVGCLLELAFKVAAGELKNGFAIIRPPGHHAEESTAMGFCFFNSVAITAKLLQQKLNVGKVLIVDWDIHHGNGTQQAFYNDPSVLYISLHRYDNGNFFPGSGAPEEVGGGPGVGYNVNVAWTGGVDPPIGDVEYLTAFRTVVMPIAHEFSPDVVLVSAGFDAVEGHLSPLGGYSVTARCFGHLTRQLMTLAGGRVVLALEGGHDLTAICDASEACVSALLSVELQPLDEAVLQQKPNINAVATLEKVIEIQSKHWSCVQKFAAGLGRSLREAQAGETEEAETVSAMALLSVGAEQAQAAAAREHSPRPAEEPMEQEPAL
Description: HDAC enzyme inhibition assay, HDAC5. To be noted: Class IIa; Reaction Biology Corp. assay. Format: biochemical. The method, then:
as §2

In data set [9] the target is T4, HDAC7 (Homo sapiens, UniProt Q8WUI4).
T4 construct: purchased Reaction Biology Corp. (contract assay service)
T4 sequence (Q8WUI4 1-952): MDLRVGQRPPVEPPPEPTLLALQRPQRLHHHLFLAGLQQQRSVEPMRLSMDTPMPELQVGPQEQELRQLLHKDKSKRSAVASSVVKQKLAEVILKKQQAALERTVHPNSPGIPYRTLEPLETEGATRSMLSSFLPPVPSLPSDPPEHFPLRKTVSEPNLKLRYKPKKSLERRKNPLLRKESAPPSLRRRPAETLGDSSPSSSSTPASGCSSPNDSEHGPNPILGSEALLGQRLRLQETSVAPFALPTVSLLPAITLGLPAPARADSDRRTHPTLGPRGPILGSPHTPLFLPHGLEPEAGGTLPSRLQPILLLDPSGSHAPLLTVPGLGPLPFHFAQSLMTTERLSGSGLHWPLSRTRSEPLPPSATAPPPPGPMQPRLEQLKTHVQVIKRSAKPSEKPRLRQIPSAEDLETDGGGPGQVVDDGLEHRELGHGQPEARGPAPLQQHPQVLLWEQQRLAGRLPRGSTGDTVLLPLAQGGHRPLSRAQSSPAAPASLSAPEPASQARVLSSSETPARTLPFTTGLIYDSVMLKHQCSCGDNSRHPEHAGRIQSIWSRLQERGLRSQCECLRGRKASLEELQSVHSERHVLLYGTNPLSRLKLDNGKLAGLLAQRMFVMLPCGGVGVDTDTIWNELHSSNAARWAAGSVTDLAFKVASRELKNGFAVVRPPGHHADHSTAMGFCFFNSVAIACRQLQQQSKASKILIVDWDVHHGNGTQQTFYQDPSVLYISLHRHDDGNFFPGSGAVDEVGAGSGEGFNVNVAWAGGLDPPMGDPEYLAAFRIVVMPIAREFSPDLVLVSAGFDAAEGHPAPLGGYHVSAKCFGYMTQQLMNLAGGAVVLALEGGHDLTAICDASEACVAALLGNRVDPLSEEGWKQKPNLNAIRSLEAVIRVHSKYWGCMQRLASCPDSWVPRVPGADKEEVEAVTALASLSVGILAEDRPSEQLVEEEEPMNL
Description: HDAC enzyme inhibition assay, HDAC7. In kind it is biochemical. To be noted: Class IIa; Reaction Biology Corp. assay. As to the method:
as §2

In data set [10] the target is T5, HDAC9 (Homo sapiens, UniProt Q9UKV0).
T5 construct: purchased Reaction Biology Corp. (contract assay service)
T5 sequence (Q9UKV0 whole entry): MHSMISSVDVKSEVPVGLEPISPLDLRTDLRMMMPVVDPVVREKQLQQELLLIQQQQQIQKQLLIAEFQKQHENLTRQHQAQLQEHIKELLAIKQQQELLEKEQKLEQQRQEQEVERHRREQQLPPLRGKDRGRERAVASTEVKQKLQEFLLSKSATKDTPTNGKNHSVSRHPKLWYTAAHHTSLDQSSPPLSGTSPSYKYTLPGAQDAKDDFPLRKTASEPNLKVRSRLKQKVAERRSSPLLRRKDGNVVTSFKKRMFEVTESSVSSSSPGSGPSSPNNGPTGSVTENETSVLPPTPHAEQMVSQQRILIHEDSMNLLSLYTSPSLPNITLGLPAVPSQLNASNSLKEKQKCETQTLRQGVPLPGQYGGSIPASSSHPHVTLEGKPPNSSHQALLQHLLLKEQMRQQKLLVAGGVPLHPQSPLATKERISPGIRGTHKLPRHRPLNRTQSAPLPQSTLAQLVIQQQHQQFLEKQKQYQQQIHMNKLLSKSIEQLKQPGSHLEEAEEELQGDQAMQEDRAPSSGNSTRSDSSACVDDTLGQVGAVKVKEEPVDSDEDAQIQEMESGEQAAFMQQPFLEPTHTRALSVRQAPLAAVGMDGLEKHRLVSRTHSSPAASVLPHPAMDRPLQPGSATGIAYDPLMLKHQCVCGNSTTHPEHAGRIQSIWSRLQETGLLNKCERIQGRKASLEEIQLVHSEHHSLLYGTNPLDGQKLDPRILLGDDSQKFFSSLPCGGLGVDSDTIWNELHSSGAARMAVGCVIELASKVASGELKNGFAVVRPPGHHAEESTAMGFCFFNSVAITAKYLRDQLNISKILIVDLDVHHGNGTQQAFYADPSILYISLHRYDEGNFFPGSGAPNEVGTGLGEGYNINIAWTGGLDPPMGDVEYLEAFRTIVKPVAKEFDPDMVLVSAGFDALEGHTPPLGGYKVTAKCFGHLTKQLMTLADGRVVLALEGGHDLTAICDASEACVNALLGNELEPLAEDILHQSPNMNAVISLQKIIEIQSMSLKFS
Kind of data set: HDAC enzyme inhibition assay, HDAC9. Format: biochemical. As to conditions: Class IIa; Reaction Biology Corp. assay. As to the method: as §2

For data set [11], the system named is acetyl-α-tubulin and acetyl-histone H3 in HCT-116 cells. Description: Western blot of acetyl-α-tubulin and acetyl-histone H3, HCT-116. Format: cell-based, human. As to conditions: 24 h. The method, then: (§3) Figure 2 MPT0G236 induced acetylation of α-tubulin and histone H3 in human colorectal cells. (A) The structure of MPT0G236. […] Protein expression was quantified by using the computerized image analysis application in ImageJ software V1.53k. The data are shown as the mean ± SEM on the basis of at least three independent experiments. * p < 0.05, ** p < 0.01, *** p < 0.001 and **** p < 0.0001 compared with the control group.
(§4) Cells were washed with PBS and incubated with lysis buffer (20 mM HEPES, pH 7.4; 2 mM EGTA; 0.1% Triton X-100; 50 mM β-glycerophosphate; 1 mM DTT; 10% glycerol; 1 μg/mL leupeptin; 1 mM sodium orthovanadate; 1 mM phenylmethylsulfonyl fluoride; 5 μg/mL aprotinin) for 10 min at 4 °C. The cells were then scraped off and incubated on ice for an additional 10 min before being centrifuged at 17,000× g for 30 min at 4 °C. The total protein […] was determined, and equal amounts of proteins were separated by […] on sodium dodecyl sulfate polyacrylamide gels (SDS-PAGE) and transferred onto a nitrocellulose membrane. […] Signals were detected with chemiluminescence reagents (GE Healthcare Corp., Buckinghamshire, UK), and the membranes were scanned using a ChemiDocTM MP Imaging System. Protein levels in the Western blots were then quantified using ImageJ software V1.53k.
(In general: A western blot detects proteins with antibodies after separation by electrophoresis.)

Data set [12] has as its system acetyl-α-tubulin and acetyl-histone H3 in HT-29 cells. Kind of data set: Western blot of acetyl-α-tubulin and acetyl-histone H3, HT-29. Format: cell-based, human. To be noted: 24 h. As to the method:
as §3, §4

For data set [13], the system named is HCT-116 cells. The arrangement: method as in PMID 27344487. To be noted: previous study, read-out: GI50 cell proliferation; cited from earlier work.
For data set [14], the system named is PC-3 cells. The arrangement: method as in PMID 27344487. As to conditions: previous study, read-out: GI50 cell proliferation; cited from earlier work.
The test system of data set [15] is A549 cells. The arrangement: method as in PMID 27344487. As to conditions: previous study, read-out: GI50 cell proliferation; cited from earlier work.
In data set [16] the test system is HCT-116 tumor. The arrangement: method as in PMID 27344487. As to conditions: cited from earlier work.
On the set-up of data set [17]: method as in PMID 27344487. To be noted: in vivo HCT-116 tumor study; cited from earlier work.
The test system of data set [18] is HDAC1. The arrangement: method as in PMID 27344487. To be noted: Class I; cited from earlier work.
Data set [19] concerns HDAC2. The arrangement: method as in PMID 27344487. As to conditions: Class I; cited from earlier work.
Data set [20] has as its system HDAC8. To be noted: Class I; cited from earlier work.
Data set [21] deals with HDAC6. The arrangement: method as in PMID 27344487. As to conditions: Class IIb; cited from earlier work.

For `O=C(/C=C/c1cccc(S(=O)(=O)c2ccc3ccccc3n2)c1)NO` [MPT0G236], the IC50 (in general, the concentration that gives 50% inhibition) is 350 nM in [1]; 880 nM in data set [2] (HT-29, MTT, 48 h); 15100 nM in [3] (Homo sapiens, HUVEC, 48 h); 70 nM in data set [6]; 19700 nM in [7]; 15500 nM in data set [8]. Also, the half-maximal inhibitory concentration (IC50) in data set [9] was 12300 nM; in [10] it was 12600 nM; in data set [18] it was 14 nM; in data set [19], 11.5 nM; in [20] it was 130 nM; in data set [21] it was 15 nM. Also, the “normal cells (HUVEC) less sensitive than colorectal cancer cells” value in data set [3] (HUVEC IC50 versus HCT-116 and HT-29 IC50) is given as “more than 10 fold”. Besides, the GI50 in data set [4] (HCT-116, SRB, 48 h) is 100 nM; in data set [5] (HT-29, SRB, 48 h), 310 nM; in data set [13] it was 80 ± 1 nM; in data set [14], 150 ± 10 nM; in data set [15], 270 ± 20 nM. For the same compound, in data set [11], the “concentration that significantly increased accumulation of acetyl-α-tubulin” value is 0.3 µM. For the same compound, the “concentration that significantly increased histone acetylation” value in [11] is 1 µM. In addition, the “concentration that significantly elevated acetyl-α-tubulin” value in data set [12] is 3 µM. Also, the “concentration that significantly elevated histone acetylation” value in data set [12] is 1 µM. Besides, the results for the “HCT-116 tumor growth suppression” value in data set [16] (oral administration of 50 mg/kg) and in [16] (oral administration of 100 mg/kg) were 32.2% and 58.8%, respectively. Further, the “effect on body weight” value in [17] is on record as “without affecting body weight”.

Regarding `O=C(CCCCCCC(=O)Nc1ccccc1)NO` [SAHA, Suberoylanilide hydroxamic acid, reference compound], the half-inhibitory concentration (IC50) in [2] (HT-29, 48 h) turned out to be 2310 nM. Moreover, the GI50 in data set [4] (HCT-116, 48 h) turned out to be 630 nM; in data set [5] (HT-29, 48 h), 470 nM.
